# Earlier results as cited in patent US12036548B2, “Organs-on-chips as a platform for epigenetics discovery” (EMULATE, INC., priority 2018, dated 2024).
# Conditions: normal nutritional iodine supply
compound,measurement,value
II [iodine],fraction taken up and stored by a normally functioning thyroid gland,15-30%
